Some test systems named below: A498 renal; MCF7 breast; HOP-92 NSCLC; IGROV1 ovarian; TK-10 renal; SK-MEL-5 melanoma; SK-MEL-2 melanoma; EKVX NSCLC; HT29 colon; LOX IMVI melanoma.
Common to all, as to test: growth of human tumour cells (NCI), 48 h

Drawing on PubChem BioAssay (NCI), this text covers TGI for 13 compounds.

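All cell lines were grown in 96-well plates and treated with compound for 48 hours. TGI marks complete inhibition of growth.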

`CSc1c(C#N)c(N)n(-c2ccc(Cl)cc2)c(=O)c1C#N`: the TGI in the test on A498 renal, with MCF7 breast, with HOP-92 NSCLC, with IGROV1 ovarian, in the test on TK-10 renal and in the test on SK-MEL-5 melanoma was above 100 µM each time. For the same compound, the TGI with SK-MEL-2 melanoma, in the test with EKVX NSCLC, in the test with HT29 colon and in the test with LOX IMVI melanoma was above 100 µM throughout.
With `OC(c1cccnc1Cl)c1nc2ccccc2c2ccnc(Cl)c12` (centres undefined), the TGI in the test on A498 renal was 17.5 µM; in the test on MCF7 breast, above 100 µM; in the test with HOP-92 NSCLC, above 100 µM; in the test on IGROV1 ovarian, above 100 µM; in the test with TK-10 renal it was above 100 µM; in the test with SK-MEL-5 melanoma, above 100 µM. In addition, the TGI with SK-MEL-2 melanoma, with EKVX NSCLC, in the test with HT29 colon and in the test with LOX IMVI melanoma was above 100 µM throughout.
Consider `O=C(O)c1ccccc1N=Nc1c(O)c(S(=O)(=O)O)cc2cc(S(=O)(=O)O)ccc12`, for which the TGI with A498 renal, in the test on MCF7 breast, with HOP-92 NSCLC, in the test on IGROV1 ovarian, in the test with TK-10 renal and with SK-MEL-5 melanoma was above 100 µM each time. Besides, the TGI in the test with SK-MEL-2 melanoma, in the test on EKVX NSCLC, in the test with HT29 colon and with LOX IMVI melanoma was above 100 µM each time.
Regarding `N#CCCC1(CCC#N)CCCCCCCCC(CCC#N)(CCC#N)C(O)C1O` (centres undefined), the TGI in the test on A498 renal, in the test on MCF7 breast, in the test on HOP-92 NSCLC, in the test with IGROV1 ovarian, in the test with TK-10 renal and in the test on SK-MEL-5 melanoma was above 100 µM each time. In addition, the TGI in the test with SK-MEL-2 melanoma, in the test with EKVX NSCLC, in the test with HT29 colon and in the test with LOX IMVI melanoma was above 100 µM in each case.
For `CC(C)/C(Cl)=N/OC(=O)Nc1ccc(Cl)c(Cl)c1`, the TGI came out at 33.5 µM in the test on A498 renal; 26.9 µM in the test on MCF7 breast; 3.2 µM in the test with HOP-92 NSCLC; 26.4 µM in the test on IGROV1 ovarian; 10.9 µM in the test with TK-10 renal; 27.3 µM with SK-MEL-5 melanoma. The TGI worked out at 34.1 µM in the test on SK-MEL-2 melanoma, 3.95 µM in the test on EKVX NSCLC, 13 µM in the test with HT29 colon and 3.16 µM with LOX IMVI melanoma.
`Nc1ncnc2c1ncn2[C@@H]1O[C@H](COC(c2ccccc2)(c2ccccc2)c2ccccc2)[C@@H](OC(=S)Oc2ccccc2)[C@@H]1F`: the TGI in the test with A498 renal is 35.2 µM; in the test with MCF7 breast, 14.9 µM; in the test with HOP-92 NSCLC, 28.6 µM; in the test on IGROV1 ovarian, 10.8 µM; in the test with TK-10 renal, 32.3 µM; in the test on SK-MEL-5 melanoma, 16.8 µM. In addition, the TGI with SK-MEL-2 melanoma turned out to be 19.4 µM; in the test on EKVX NSCLC it was 26.6 µM; with HT29 colon, 22.7 µM; in the test with LOX IMVI melanoma it was 14.1 µM.
Take `COc1cccc(C2c3cc4c(cc3OC3COC(=O)C32)OCO4)c1OC` (centres undefined): the TGI with A498 renal, in the test on MCF7 breast, in the test with HOP-92 NSCLC, with IGROV1 ovarian, in the test with TK-10 renal and with SK-MEL-5 melanoma was above 100 µM throughout. In addition, the TGI with SK-MEL-2 melanoma, in the test with EKVX NSCLC, in the test on HT29 colon and in the test with LOX IMVI melanoma was above 100 µM in each case.
`CN1CCN(P2(=S)Oc3ccc4ccccc4c3-c3c(ccc4ccccc34)O2)CC1`: the TGI was above 100 µM in the test on A498 renal; above 81.2 µM in the test on MCF7 breast; 59.7 µM with HOP-92 NSCLC; above 100 µM in the test with IGROV1 ovarian; 53.2 µM with SK-MEL-5 melanoma; 42.4 µM with SK-MEL-2 melanoma. For the same compound, the TGI is above 77.8 µM with EKVX NSCLC, 49.8 µM with HT29 colon and 39.6 µM in the test on LOX IMVI melanoma.
For the compound `CCC1C(c2ccccc2O)c2cc3c(cc2OC1N1CCOCC1)OCO3` (centres undefined), the TGI was determined as 27.5 µM in the test with A498 renal; 28.2 µM in the test with MCF7 breast; 27.6 µM with HOP-92 NSCLC; 32.3 µM in the test with IGROV1 ovarian; 28 µM in the test on TK-10 renal; 30.5 µM with SK-MEL-5 melanoma. In addition, the TGI was found to be 30.8 µM in the test with SK-MEL-2 melanoma, 25.4 µM in the test on EKVX NSCLC, 26.4 µM in the test on HT29 colon and 30.2 µM in the test with LOX IMVI melanoma.
Regarding `CCN(CC)c1nnc(CCCCCCCCc2nnc(N(CC)CC)o2)o1`, the TGI in the test with A498 renal, in the test on MCF7 breast, in the test on HOP-92 NSCLC, in the test with IGROV1 ovarian, with TK-10 renal and with SK-MEL-5 melanoma was above 100 µM throughout. Also, the TGI with SK-MEL-2 melanoma, with EKVX NSCLC, in the test with HT29 colon and in the test with LOX IMVI melanoma was above 100 µM in each case.
As for `C=C1CC[C@@H](C)[C@](C)(CCc2ccoc2)C/C=C\C=C/1C(=O)O`, the TGI in the test on A498 renal, in the test on MCF7 breast, in the test with HOP-92 NSCLC, with IGROV1 ovarian, in the test with TK-10 renal and with SK-MEL-5 melanoma was above 100 µM throughout. Further, the TGI is 43.8 µM in the test with SK-MEL-2 melanoma, above 100 µM in the test on EKVX NSCLC, above 100 µM with HT29 colon and 57 µM in the test with LOX IMVI melanoma.
Consider `O=[N+]([O-])c1ccc(C(O)(C#CCN2CCCC2)c2ccccc2)cc1` (centres undefined), for which the TGI with A498 renal is 76.6 µM; with MCF7 breast, above 100 µM; in the test on HOP-92 NSCLC, 51.7 µM; in the test with IGROV1 ovarian it was above 100 µM; in the test on TK-10 renal, above 100 µM; in the test with SK-MEL-5 melanoma it was 42.6 µM. The TGI is 75.5 µM with SK-MEL-2 melanoma, above 100 µM with EKVX NSCLC, 34 µM in the test on HT29 colon and 43.9 µM with LOX IMVI melanoma.
Turning to `CC(=O)OCC1OC(OCCCOP(=S)(OCCC#N)OCC2OC(n3ccc(N)nc3=O)C(OC(=O)c3ccccc3)C2OC(=O)c2ccccc2)C(OC(C)=O)C(OC(C)=O)C1OC(C)=O` (centres undefined), the TGI with A498 renal, in the test with MCF7 breast, in the test on HOP-92 NSCLC, in the test on IGROV1 ovarian, in the test on TK-10 renal and in the test on SK-MEL-5 melanoma was above 100 µM in each case. Also, the TGI with SK-MEL-2 melanoma, in the test on EKVX NSCLC, in the test on HT29 colon and in the test with LOX IMVI melanoma was above 100 µM each time.
